Assay results: patent US20060069132A1, “Azolecarboxamide herbicides” (priority 2004, published 2006)

Experiments:
[1] = system: Surinam grass; test: Test B pre-/postemergence herbicide test; format: in vivo, Urochloa decumbens
Outline: (§1)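 Herbicidal effect was judged by eye on a 0–100 scale after plants stood 13 to 15 days in the greenhouse following pre- or postemergence treatment with surfactant-containing formulations.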

[2] = system: smallflower umbrella sedge; test: Test C flooded paddy test; format: in vivo, Cyperus difformis
[3] = system: lambsquarters; test: Test B pre-/postemergence herbicide test; format: in vivo, Chenopodium album
Outline: as §1

[4] = system: rice; test: Test C flooded paddy test; format: in vivo, Oryza sativa
Outline: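 Postemergence sprays applied to plants 2 to 18 cm tall (1- to 4-leaf stage); paddy species grown to 2-leaf stage under flooding. After 12 to 14 days in greenhouse, visual rating versus untreated controls on 0–100 scale (0 no effect, 100 complete control).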

[5] = system: morningglory; test: Test B pre-/postemergence herbicide test; format: in vivo, Ipomoea coccinea
Outline: (§2)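 Flooded paddy rice and barnyardgrass were treated at the 2-leaf stage; upland plantings received compound either on sown seed or on 1- to 4-leaf seedlings. All were kept 13–15 days in a greenhouse and scored visually, 0–100, relative to untreated plants.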

[6] = system: large crabgrass; test: Test B pre-/postemergence herbicide test; format: in vivo, Digitaria sanguinalis
Outline: as §1

[7] = system: blackgrass; test: Test B postemergence herbicide test; format: in vivo, Alopecurus myosuroides
Outline: (§3)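 After treating 2-leaf paddy plants or 2–18 cm postemergence plants (1 to 4 leaves) with formulated chemical, researchers kept them in a greenhouse for 13–15 days. Effects were judged visually versus controls: 0 indicates none, 100 total control.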

[8] = system: barnyardgrass; test: Test C flooded paddy test; format: in vivo, Echinochloa crus-galli
Outline: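 Greenhouse test with a 12–14 day hold after application and visual comparison with controls. Emerged plants were 1- to 4-leaf stage (2–18 cm) when sprayed postemergence, and the paddy barnyardgrass was at 2 leaves under flooded conditions. 100 = complete control.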

[9] = system: rice; test: Test B flooded paddy test; format: in vivo, Oryza sativa; conditions: scale 0 to 100 (0 no effect, 100 complete control)
Outline: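 Treated at 2-leaf (paddy) or 1–4-leaf, 2–18 cm (postemergence); greenhouse 13–15 d; visual score vs control, 0 none to 100 complete control; dash = not tested.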

[10] = system: ducksalad; test: Test B flooded paddy test; format: in vivo, Heteranthera limosa; conditions: scale 0 to 100 (0 no effect, 100 complete control)
Outline: as §3

[11] = system: small flower umbrella sedge; test: Test B flooded paddy test; format: in vivo, Cyperus difformis; conditions: scale 0 to 100 (0 no effect, 100 complete control)
Outline: as §3

[12] = system: barnyardgrass; test: Test B flooded paddy test; format: in vivo, Echinochloa crus-galli; conditions: scale 0 to 100 (0 no effect, 100 complete control)
Outline: as §3

[13] = system: giant foxtail; test: Test B pre-/postemergence herbicide test; format: in vivo, Setaria faberi
Outline: as §1

[14] = system: barnyardgrass; test: Test B pre-/postemergence herbicide test; format: in vivo, Echinochloa crus-galli; conditions: for Barnyardgrass plant response rating: Postemergence, scale 0 (no effect) to 100 (complete control)
Outline: as §2

[15] = system: pigweed; test: Test B pre-/postemergence herbicide test; format: in vivo, Amaranthus retroflexus
Outline: as §1

[16] = system: velvetleaf; test: Test B pre-/postemergence herbicide test; format: in vivo, Abutilon theophrasti
Outline: as §1

[17] = system: wheat; test: Test B postemergence herbicide test; format: in vivo, Triticum aestivum; design: key to Wheat plant response rating: 0 = no effect, 100 = complete control
Outline: (§4)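 Formulated test chemicals went onto postemergence plants measuring 2 to 18 cm, at one to four leaves. For the paddy assay, species had reached two leaves. Scoring took place 13–15 days later by eye, relative to untreated plants, using 0 for no effect up to 100 for full control.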

[18] = system: corn; test: Test B pre-/postemergence herbicide test; format: in vivo, Zea mays
Outline: as §1

[19] = system: cocklebur; test: Test B pre-/postemergence herbicide test; format: in vivo, Xanthium strumarium
Outline: as §2

[20] = system: ducksalad; test: Test C flooded paddy test; format: in vivo, Heteranthera limosa
[21] = system: wild oat; test: Test B postemergence herbicide test; format: in vivo, Avena fatua
Outline: as §4

[22] = system: large crabgrass; test: Test A pre-/postemergence herbicide test; format: in vivo, Digitaria sanguinalis
Outline: (§5)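 Plants are held in greenhouse about ten days after treatment, then compared with untreated controls and scored 0 (no effect) to 100 (complete control). Preemergence dosing is a directed soil spray on sown sandy loam; postemergence dosing is spray to runoff at 2–10 cm height.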

[23] = system: giant foxtail; test: Test A pre-/postemergence herbicide test; format: in vivo, Setaria faberi
Outline: as §5

[24] = system: velvetleaf; test: Test A pre-/postemergence herbicide test; format: in vivo, Abutilon theophrasti
Outline: as §5

[25] = system: redroot pigweed; test: Test A pre-/postemergence herbicide test; format: in vivo, Amaranthus retroflexus
Outline: as §5

[26] = system: morningglory; test: Test A pre-/postemergence herbicide test; format: in vivo, Ipomoea spp.
Outline: as §5

[27] = system: barnyardgrass; test: Test A pre-/postemergence herbicide test; format: in vivo, Echinochloa crus-galli
Outline: as §5

[28] = 125 g ai/ha, 0 is no effect, 100 is complete control, preemergence
[29] = Postemergence, 500 g ai/ha, scale 0 (no effect) to 100 (complete control)
[30] = postemergence, 125 g ai/ha, scale 0 to 100
[31] = 125 g ai/ha, scale 0 to 100 (0 no effect, 100 complete control)
[32] = 250 g ai/ha, scale of 0 to 100, 0 is no effect, 100 is complete control
[33] = 500 g ai/ha, visual rating after 12 to 14 days, scale 0 to 100 (0 no effect, 100 complete control)
[34] = Postemergence, 125 g ai/ha, 0 to 100 scale, 0 no effect, 100 complete control
[35] = Postemergence, 500 g ai/ha, 0 to 100 scale, 0 no effect, 100 complete control
[36] = preemergence, 125 g ai/ha, visual injury, 0 to 100 scale (0 no effect, 100 complete control)
[37] = preemergence, 500 g ai/ha, visual injury, 0 to 100 scale (0 no effect, 100 complete control)

CCc1nn(C(C)C)nc1C(=S)Nc1cccc(C(=S)N(C)C)c1 [Compound 410]
40: Rice plant response rating [4, 31] | Ducksalad plant response rating [20, 31]
20: Lambsquarters plant response rating [3, 30] | Rice plant response rating ([4]; 62 g ai/ha, scale 0 to 100) | Crabgrass, Large plant response rating [6, 29] | Barnyardgrass plant response rating [8, 31] | Foxtail, Giant plant response rating [13, 29]
10: Blackgrass plant response rating [7, 30] | Foxtail, Giant plant response rating [13, 30] | Wheat plant response rating [17, 29] | Corn plant response rating [18, 29] | Cocklebur plant response rating [19, 29] | Oat, Wild plant response rating [21, 29]
80: Sedge, Umbrella plant response rating [2, 32] | Morningglory plant response rating [5, 29] | Ducksalad plant response rating ([10]; 1000 g ai/ha) | Sedge, Umbrella plant response rating ([11]; 1000 g ai/ha) | Barnyardgrass plant response rating ([12]; 1000 g ai/ha)
75: Sedge, Umbrella plant response rating [2, 31]
90: Plant response rating (0 to 100 scale), Crabgrass, Large [6, 28] | Wheat plant response rating ([17]; 500 g ai/ha, scale 0 to 100, 0 no effect, 100 complete control, preemergence)
70: Sedge, Umbrella plant response rating ([2]; 62 g ai/ha, scale 0 to 100) | Lambsquarters plant response rating [3, 29] | Pigweed plant response rating [15, 29]
85: Plant response rating, Sedge, Umbrella [2, 33]
65: Plant response rating, Barnyardgrass [8, 33]
60: Plant response rating (0 to 100 scale), Surinam Grass [1, 28] | Rice plant response rating [4, 32] | Plant response rating, Rice [4, 33] | Barnyardgrass plant response rating [8, 32] | Rice plant response rating ([9]; 1000 g ai/ha) | Plant response rating (0 to 100 scale), Pigweed [15, 28] | Ducksalad plant response rating [20, 32] | Plant response rating, Ducksalad [20, 33]
100: Plant response rating (0 to 100 scale), Lambsquarters [3, 28] | Plant response rating (0 to 100 scale), Barnyardgrass [14, 28]
30: Plant response rating (0 to 100 scale), Morningglory [5, 28] | Blackgrass plant response rating [7, 29] | Plant response rating (0 to 100 scale), Foxtail, Giant [13, 28] | Plant response rating (0 to 100 scale), Velvetleaf [16, 28] | Ducksalad plant response rating ([20]; 62 g ai/ha, scale 0 to 100)
0: Surinam Grass plant response rating [1, 29] | Surinam Grass plant response rating [1, 30] | Morningglory plant response rating [5, 30] | Crabgrass, Large plant response rating [6, 30] | Barnyardgrass plant response rating ([8]; 62 g ai/ha, scale 0 to 100 (0 no effect, 100 complete control)) | Barnyardgrass plant response rating ([14]; 125 g ai/ha) | Barnyardgrass plant response rating ([14]; 500 g ai/ha) | Pigweed plant response rating [15, 30] | Velvetleaf plant response rating [16, 29] | Velvetleaf plant response rating [16, 30] | Wheat plant response rating [17, 30] | Plant response rating (0 to 100 scale), Corn [18, 28] | Corn plant response rating [18, 30] | Plant response rating (0 to 100 scale), Cocklebur [19, 28] | Cocklebur plant response rating [19, 30] | Oat, Wild plant response rating [21, 30]

CCn1nc(C(C)(C)C)nc1C(=O)Nc1cccc(C(=O)N(C)C)c1 [Compound 448]
95: Barnyardgrass plant response rating [27, 36]
85: Crabgrass, Large plant response rating [22, 37] | Foxtail, Giant plant response rating [23, 34] | Velvetleaf plant response rating [24, 37]
80: Rice plant response rating ([9]; 125 g ai/ha) | Ducksalad plant response rating ([10]; 500 g ai/ha) | Crabgrass, Large plant response rating [22, 35] | Foxtail, Giant plant response rating [23, 36] | Velvetleaf plant response rating [24, 35]
70: Ducksalad plant response rating ([10]; 125 g ai/ha) | Pigweed plant response rating [25, 34]
100: Barnyardgrass plant response rating ([12]; 500 g ai/ha) | Foxtail, Giant plant response rating [23, 37] | Pigweed plant response rating [25, 36] | Pigweed plant response rating [25, 37] | Barnyardgrass plant response rating [27, 37]
15: Velvetleaf plant response rating [24, 36] | Morningglory plant response rating [26, 34]
45: Crabgrass, Large plant response rating [22, 36]
90: Rice plant response rating ([9]; 500 g ai/ha) | Sedge, Umbrella plant response rating ([11]; 125 g ai/ha) | Sedge, Umbrella plant response rating ([11]; 500 g ai/ha) | Barnyardgrass plant response rating ([12]; 125 g ai/ha) | Foxtail, Giant plant response rating [23, 35] | Pigweed plant response rating [25, 35] | Barnyardgrass plant response rating [27, 34] | Barnyardgrass plant response rating [27, 35]
55: Morningglory plant response rating [26, 35]
60: Velvetleaf plant response rating [24, 34] | Morningglory plant response rating [26, 36] | Morningglory plant response rating [26, 37]
75: Crabgrass, Large plant response rating [22, 34]

CCn1nc(C(C)(C)C)nc1C(=O)Nc1cccc(OC(F)(F)F)c1 [Compound 449]
50: Rice plant response rating ([9]; 500 g ai/ha) | Foxtail, Giant plant response rating [23, 35] | Pigweed plant response rating [25, 37]
80: Crabgrass, Large plant response rating [22, 37] | Sedge, Umbrella plant response rating ([11]; 500 g ai/ha)
60: Foxtail, Giant plant response rating [23, 36]
45: Barnyardgrass plant response rating [27, 36]
10: Rice plant response rating ([9]; 125 g ai/ha) | Velvetleaf plant response rating [24, 34] | Velvetleaf plant response rating [24, 37]
5: Morningglory plant response rating [26, 34] | Morningglory plant response rating [26, 37]
40: Pigweed plant response rating [25, 35]
30: Crabgrass, Large plant response rating [22, 35] | Sedge, Umbrella plant response rating ([11]; 125 g ai/ha) | Barnyardgrass plant response rating ([12]; 500 g ai/ha)
90: Foxtail, Giant plant response rating [23, 37] | Barnyardgrass plant response rating [27, 37]
20: Ducksalad plant response rating ([10]; 125 g ai/ha) | Crabgrass, Large plant response rating [22, 34] | Foxtail, Giant plant response rating [23, 34] | Velvetleaf plant response rating [24, 35] | Pigweed plant response rating [25, 34] | Barnyardgrass plant response rating [27, 34]
35: Crabgrass, Large plant response rating [22, 36] | Barnyardgrass plant response rating [27, 35]
0: Barnyardgrass plant response rating ([12]; 125 g ai/ha) | Velvetleaf plant response rating [24, 36] | Pigweed plant response rating [25, 36] | Morningglory plant response rating [26, 36]
15: Morningglory plant response rating [26, 35]
70: Ducksalad plant response rating ([10]; 500 g ai/ha)

CCc1nn(C(C)(C)C)cc1C(=O)Nc1cc(C(=S)N(C)C)ccc1F [Compound 454]
80: Rice plant response rating ([9]; 500 g ai/ha) | Barnyardgrass plant response rating [27, 35]
40: Pigweed plant response rating [25, 34] | Barnyardgrass plant response rating [27, 34]
85: Crabgrass, Large plant response rating [22, 37] | Foxtail, Giant plant response rating [23, 37] | Barnyardgrass plant response rating [27, 37]
60: Rice plant response rating ([9]; 125 g ai/ha) | Sedge, Umbrella plant response rating ([11]; 125 g ai/ha)
90: Barnyardgrass plant response rating ([12]; 500 g ai/ha) | Pigweed plant response rating [25, 37]
20: Foxtail, Giant plant response rating [23, 34] | Velvetleaf plant response rating [24, 37] | Pigweed plant response rating [25, 36] | Morningglory plant response rating [26, 37]
70: Ducksalad plant response rating ([10]; 500 g ai/ha) | Crabgrass, Large plant response rating [22, 35] | Sedge, Umbrella plant response rating ([11]; 500 g ai/ha) | Foxtail, Giant plant response rating [23, 35] | Velvetleaf plant response rating [24, 35] | Pigweed plant response rating [25, 35] | Barnyardgrass plant response rating [27, 36]
10: Crabgrass, Large plant response rating [22, 34] | Foxtail, Giant plant response rating [23, 36] | Morningglory plant response rating [26, 34]
50: Ducksalad plant response rating ([10]; 125 g ai/ha) | Crabgrass, Large plant response rating [22, 36] | Barnyardgrass plant response rating ([12]; 125 g ai/ha) | Velvetleaf plant response rating [24, 34] | Morningglory plant response rating [26, 35]
0: Velvetleaf plant response rating [24, 36] | Morningglory plant response rating [26, 36]
